Experiment [1] relates to T-cell hybridomas. In words: FVIII peptide specificity of T cell hybridomas generated from DR2+ mice (IL-2 production). Type of experiment: cell-based. Conditions: for Number of hybridomas responding to peptide: of the 27 hybridomas screened, HLA-DR2 mice, 20 μg/ml peptide, IL-2. The text has this:
HLA-DR2 mice were first immunised with factor VIII in adjuvant. Spleen cells from immune mice were restimulated in vitro with factor VIII and the resulting lymphoblasts were fused with the BW5147 thymoma using polyethylene glycol.
T-cell hybridomas were selected in HAT medium and the hybridomas cloned and tested for their response to factor VIII. The hybridomas were then screened for their response to the 12 predicted peptides.
(§1) HLA-DR2+ murine MHC class II null mice were immunised as above. On day 10 draining lymph nodes were removed and lymphocytes cultured at 2.5×10^6 cells/ml, 1 ml/well in 24 well plates in the presence of 20 μg/ml rhFVIII for 3 days. Following this stimulation, lymphocytes were recovered, washed and fused with TCRα^−β^− BW fusion partner cells at a ratio of 4 BW cells to 1 lymphocyte, using polyethylene glycol as described by Nelson et al (1980) PNAS 77(5):2866. Fused cells were carefully washed and then plated out in flat bottomed 96 well plates for 2 days before the addition of HAT medium to select for T cell hybridomas. Cells were monitored for growth and approximately 10 days after fusions were performed, individual clones were selected and transferred to 24 well plates in HAT medium. Clones were maintained in HAT medium for at least 2 weeks before being weaned into HT medium and then complete medium. Clones were tested for antigenic specificity by culturing 100 μl of hybridoma cells with 5×10^4 Mgar cells in the presence and absence of 20 μg/ml rhFVIII overnight. Supernatants were then collected and assessed for IL-2 production by ELISA, with clones producing IL-2 in response to rhFVIII being considered positive for FVIII-specificity. To investigate the repertoire of predicted FVIII peptides FVIII-specific clones were again tested for IL-2 production, following overnight incubation with 20 μg/ml of each of the 12 peptides.

The subject of experiment [2] is HLA-DR2 restricted cells from factor VIII immunised mice. The experiment in a line: Recall responses (proliferation) of lymph node cells from FVIII+DR2+ mice primed with rhFVIII/CFA to FVIII peptides. Type of experiment: cell-based. Conditions: FVIII+DR2+ mice immunised with human factor VIII in adjuvant; LNC restimulated in vitro with peptide; FIG. 1.
For a further experiment, the system named is HLA-DR2 transgenic mice. The experiment in a line: Tolerisation of FVIII-specific responses in DR2+ mice by pre-treatment with peptide. Type of experiment: in vivo. Conditions: 3x i.p. 100 μg peptide prior to priming with rhFVIII/CFA, vs PBS, FIG. 6. As for the experimental part:
HLA-DR2 transgenic mice were treated with either of the two soluble peptides, or PBS as a control, prior to immunisation with factor VIII in adjuvant. Draining lymph nodes were isolated and the cells restimulated in vitro with factor VIII protein in order to assess the immune status of the mice.
HLA-DR2+ murine MHC class II null mice were treated 3 times with 100 μg of DNIMV (SEQ ID NO:72), PRCLT (SEQ ID NO:70) or PPIIA (SEQ ID NO:65) dissolved in PBS, or the equivalent volume of PBS alone. Peptides were administered intraperitoneally, with 3-4 days between each dose. Following the final administration, mice were primed with rhFVIII emulsified in complete Freunds adjuvant as for (i). 10 days later, draining lymph nodes were recovered and lymphocytes subsequently cultured in vitro with rhFVIII, or each of the tolerising peptides as well as control antigens, for 72 hours before the addition of tritiated thymidine as for (i).

Experiment [3] deals with T-cell hybridomas. In words: FVIII peptide specificity of T cell hybridomas generated from FVIII-/- HLA-DR2+ mice (IL-2 production). Type of experiment: cell-based. Conditions: of 19 hybridomas specific for factor VIII; factor VIII deficient HLA-DR2 mice.
Description: Factor VIII deficient mice expressing HLA-DR2 were immunised with factor VIII in adjuvant. Spleen cells from the immunised mice were restimulated in vitro with factor VIII and the resulting lymphoblasts were fused with BW5147, as described above. T-cell hybridomas were screened for their response to the 12 predicted peptides. Yet again, the majority of hybridomas responded to peptides DNIMV (SEQ ID NO:72) and PRCLT (SEQ ID NO:70). Of 19 hybridomas specific for factor VIII, 10 responded to DNIMV (SEQ ID NO:72), 6 to PRCLT (SEQ ID NO:70), 1 to PPIIA (SEQ ID NO:65), 1 to SLYIS (SEQ ID NO:64) and 1 to DTLLI (SEQ ID NO:69).
as §1
The same method was followed as for (ii), except the mice were FVIII-deficient and HLA-DR2+.

Experiment [4] deals with fixed Mgar cells / FVIII-/- T cell hybridoma clones. The experiment in a line: Presentation by fresh or fixed Mgar cells to hybridoma clones (antigen processing-independent presentation, IL-2 ELISA). Conditions: 20 μg/ml, overnight, Mgar cells fresh or fixed with 1% paraformaldehyde, IL-2 by ELISA; FIG. 5. Type of experiment: cell-based. As for the experimental part:
In order to be an antigen processing-independent epitope, a peptide must be capable of binding to an MHC class I or II molecule without further antigen processing (i.e. trimming) and be presented to a T cell. In the present case, the capacity of peptides to be presented by fixed APC was investigated.
Mgar cells were either fresh or fixed with 1% paraformaldehyde. Clones were tested for antigenic specificity by culturing 100 μl of hybridoma cells with 5×10^4 Mgar cells in the presence and absence of 20 μg/ml rhFVIII or peptide epitopes overnight. Supernatants were then collected and assessed for IL-2 production by ELISA.
A general note: In an ELISA, binding on a coated surface is turned into a signal by an enzyme label.

The test system of experiment [5] is lymph node cells from FVIII-DR2+ mice. The experiment in a line: Recall responses of lymph node cells from FVIII-DR2+ mice primed with rhFVIII/CFA to the peptide panel. Conditions: FVIII-DR2+ animals immunised with factor VIII in adjuvant; FIG. 3. Type of experiment: cell-based. The text has this:
HLA-DR2 transgenic mice were crossed with factor VIII deficient mice to create a model of haemophilia expressing the human HLA class II MHC molecule.
These FVIII-DR2+ animals were immunised with factor VIII in adjuvant. Draining lymph nodes were isolated and tested for their response to the peptide panel.
The same method was followed as for (i), except the mice were FVIII-deficient, HLA-DR2+ and murine MHC class II null.

As for DNIMVTFRNQASRPY, the “Number of hybridomas responding to peptide” value (from here on “Number”) in the experiment with T-cell hybridomas [1] was 11; with T-cell hybridomas [3], 10. For the same sequence, in experiment [2], the “Response of lymph node cells to peptide (LNC proliferation)” value (“Response … (LNC proliferation)” for short) is recorded as “respond strongly”. Further, the “Immune response to factor VIII after peptide pre-treatment (LNC recall response)” value in the experiment with HLA-DR2 transgenic mice was “substantial suppression of the immune response to factor VIII”. The “Presentation by live and fixed Mgar cells” value in experiment [4] is “presented by both live and fixed Mgar cells”. For the same sequence, the “Response of lymph node cells to peptide” value in experiment [5] was “responded well”.

In the case of DTLLIIFKNQASRPY, the “Number” value in the experiment on T-cell hybridomas [3] turned out to be 1.

Turning to GTLMVFFGNVDSSGI [FVIII first AA 2140], in experiment [5], the “Response of lymph node cells to peptide” value is on record as “weak response”.

For the sequence PPIIARYIRLHPTHY [FVIII first AA 2161], the “Quality of hybridoma response to peptide” value in the experiment on T-cell hybridomas [1] (HLA-DR2 mice hybridomas) was “weaker and less specific”. Further, the entries for the “Number” value in the experiment on T-cell hybridomas [1] and in the experiment with T-cell hybridomas [3] were 3 and 1, respectively. Besides, the “Response … (LNC proliferation)” value in experiment [2] is listed as “responses”.

Consider PRCLTRYYSSFVNME, for which the results for the “Number” value with T-cell hybridomas [1] and in the experiment on T-cell hybridomas [3] were 3 and 6, respectively. Besides, the “Response … (LNC proliferation)” value in experiment [2] was “responses”. Further, the “Immune response to factor VIII after peptide pre-treatment (LNC recall response)” value in the experiment on HLA-DR2 transgenic mice is reported as “substantial suppression of the immune response to factor VIII”. For the same sequence, in experiment [4], the “Presentation by live and fixed Mgar cells” value is “presented by both live and fixed Mgar cells”. Further, in experiment [5], the “Response of lymph node cells to peptide” value was “responded well”.

On to RYLRIHPQSWVHQIA [FVIII first AA 2322], for which the “Response of lymph node cells to peptide” value in experiment [5] is recorded as “significant response”.

As to SLYISQFIIMYSLDG [FVIII first AA 2114], the “Number” value in the experiment on T-cell hybridomas [3] was found to be 1.

The values are drawn from patent publication US8445448B2, “FVIII peptides and their use in tolerising haemophiliacs” (Apitope International NV, priority 2007, dated 2013).
